The record followed here is US11820762B2, “Compounds as potential therapeutic agents targeting various neurodegenerative diseases” (The Hong Kong University of Science and Technology, priority 2020, dated 2023).

Data set [1] concerns DNA (G4C2)4 (SEQ ID NO: 5) G4. As to the kind of experiment: 1D 1H-NMR titration of DNA (G4C2)4 G4. Type of data set: binding. The following applies: for binding affinity order according to NMR titration: DNA (G4C2)4 G-quadruplex and hnRNP H, FIGS. 3C-3E; for binding to DNA (G4C2)4 G4 by NMR titration: G4:compound ratio 1:1 to 1:10. On the procedure:
Single […] were purchased from Integrated DNA Technologies (IDT) and Takara. Single-strand DNA/RNA sample at 100 μM was then annealed by heating up to 95° C. for 15 mins, and slowly cooled to room temperature in the annealing buffer (70 mM KCl, 20 mM potassium phosphate (pH 7.0)) for overnight. The final NMR samples contained 0.1 mM DNA or RNA in 70 mM KCl and 20 mM potassium phosphate buffer (pH 7.0).
The 1D ^1H-NMR spectra were performed at 25° C. All compounds were dissolved in isotope-labeled d6-DMSO (Sigma-Aldrich) at about 50 mM concentration, working as stock solutions. To avoid chemical shift changes of DNA/RNA G4 resulted from d6-DMSO addition, […] d6-DMSO was added into 500 μL of 0.1 mM DNA/RNA G4 solution in the NMR buffer (20 mM potassium phosphate buffer and 70 mM KCl, pH 7.0, 10% D2O) and then 1D ^1H-NMR spectrum was recorded as a reference. During NMR titration experiments of adding each compound into the DNA/RNA G4 solution, the maximal volume of 10 μL of each compound in d6-DMSO solution was regarded as a final data point.
We next confirmed the binding of cA and DNA (G4C2)4 (SEQ ID NO: 5) G4 by NMR titration experiments.

The subject of data set [2] is G4C2 RNA foci in (G4C2)29 overexpressed Neuro2a cells. As to the kind of experiment: RNA fluorescent in situ hybridisation, RNA foci numbers. Type of data set: cell-based. Also noted: CAGG (control probe) RNA foci numbers: dose or concentration left out as unconfirmed. The conditions noted are these: for G4C2 RNA foci numbers in cells: 1 g/ml treatment for 2 days; for CAGG (control probe) RNA foci numbers: treatment for 2 days. On the procedure: Neuro2a cells planted on coverslips were transfected with pHR-Tre3G-29xGGGGCC-12xMS2 plasmid (#99149), incubated for 2-3 days and then fixed with 4% paraformaldehyde for 15 min at room temperature. Cells were permeabilised with 0.1% TritonX-100 in PBS for 10 min before hybridisation. Target probe ([…]) (SEQ ID NO: 1) with a 5′-Cy3 and control probe ([…]) (SEQ ID NO: 2) with a 5′-Cy5 were added to the hybridisation solution (0.9M NaCl, 0.02M Tris-HCl, 0.01% SDS, 20% formamide). Cells were then incubated in the mixed solution at 46° C. for 3 h. Cells were washed three times in washing solution (0.02M Tris-HCl, 0.001% SDS, 5 mM EDTA) at 48° C., 15 min each time. Then, cells were stained with primary antibodies (Anti-DNA G-quadruplex (G4) antibody (Cat. No. MABE1126) or Anti-hnRNP H antibody (ab10374)) at 1:500 dilution and incubated at 4° C. overnight. In the next day, cells were washed three times with PBS (10 min each time), and then incubated with secondary antibodies (Alexa 488 anti-mouse for G4 or Alex 488 anti-rabbit for hnRNP H) at 1:500 dilution for 1 h at room temperature. Superfluous secondary antibodies were washed away with PBS for three times (10 min each time). Then cells were incubated with DAPI at 1:5000 dilution for 5 mins and washed with PBS once. Finally, cells on slides were air-dried, mounted in Hydromount medium and analysed by confocal microscopy (Leica, SP8).
Firstly, we confirmed that RNA foci were specifically observed in the (G4C2)29 (SEQ ID NO: 6) overexpressed Neuro2a cells (FIG. 8C).

Another data set has as its system red blood cells. Briefly: Hemolysis assay. Type of data set: cell-based. The following applies: 250, 500, 1000 μg/mL; 2% rabbit red blood cells; 37° C., 1 hour. On the procedure: Hemolytic activity was determined with 2% fresh red blood cells from a healthy rabbit. Blood cells were obtained and washed with PBS buffer four to five times and centrifuged at 1500 rpm for 10 mins until the upper phase became clear. Compounds were diluted with PBS to final concentrations of 1000, 500, 250 μg/mL, added to the same volume of 2% red blood cells and incubated at 37° C. for 1 hour. Samples were centrifuged at 10,000 rpm for 5 mins, and supernatants were added into 96-well plates and measured at 570 nm with a Thermo Scientific Multiskan FC multiplate photometer (Thermo Scientific™, USA). An aliquot of 10% Triton X-100 was used as the positive control, and 1% DMSO dissolved in PBS was used as the negative control.

Data set [3] deals with differentiated HT22 cells. Briefly: cells. It counts as cell-based. The conditions noted are these: for EC50: Mus musculus, HT-22, differentiated HT22 cells pre-treated with 5 mM L-glutamate, cell viability; for neuroprotective activity compared with cA: comparison of analogs. On the procedure:
Cytotoxicity of compounds was tested by MTT assay. Cells were grown in DMEM (Gibco) with 10% FBS and 1% penicillin-streptomycin at 37° C. with 5% CO2. In total, 5×10^3 cells were seeded in each well of 96-well plates and cultured for 24 hours. Then cells were treated with different concentrations of compounds dissolved in DMSO for another 24 hours. After incubating with 20 μl of MTT (5 mg/mL) for each well at 37° C. for another four hours, 100 μl of DMSO was added to dissolve formazan. Absorbance was measured using a Multiskan™ FC microplate photometer at 570 nm. IC50 data were analyzed with GraphPad Prism software.
Cultured HT22 cells were differentiated by applying 10 μM retinoic acid (Sigma-Aldrich, R2625-50MG) and 500 μM cAMP (Sigma-Aldrich, A6885) in DEME medium supplied with 0.5% FBS (differentiation medium) and incubated 48 hours before adding other treatments. 5 mM L-glutamate acid was applied to the original differentiation medium for further 24-hours incubation. Cell viability was measured by MTT assay described above.
In the C9orf72 associated ALS/FTD, the G4C2 HRE make motor neurons more vulnerable to aberrant neuron excitation^43. Meanwhile, the hyperactivation of glutamate receptors drives a toxic level of neuronal activity, promoting the non-ATG (RAN) translation of G4C2 repeat-associated DPR proteins^44, leading to further toxicity of motor neurons. Thus, we would like to test our compounds in a glutamate (E)-induced excitotoxicity cell model.

Entries after “also recorded” stand apart in the source; their conditions may differ.

As usually defined, the EC50 is the concentration giving half of the maximal effect. In the case of `CC(=O)Cc1cc2c(c(O)c1C(=O)O)-c1c(c(O)c3oc4c(O[C@@H]5OC(C(=O)O)=C[C@H](O)[C@H]5O)cccc4c(=O)c3c1O)CC2` [cA, chrexanthomycin A], in data set [1], the “binding affinity order according to NMR titration” value (shortened to “binding affinity order according”) is listed as “cC>cA>cB>cF” and the “binding to DNA (G4C2)4 G4 by NMR titration” value (“binding to DNA (G4C2)4 G4” below) was “apparent chemical shift changes”. Also, in data set [2], the “G4C2 RNA foci numbers in cells” value is reported as “significantly reduced” and the “CAGG (control probe) RNA foci numbers” value is listed as “seldomly changed”. Besides, in the data set with red blood cells, the hemolytic activity entry is “no hemolytic activity even at the concentration of 1000 μg/ml; also recorded: no hemolytic activity with a pretty high concentration of 1 mg/ml”. Besides, the EC50 in data set [3] was found to be 0.31 µM.

With `COc1c2c(c(O)c3c(=O)c4cccc(O[C@@H]5OC(C(=O)O)=C[C@H](O)[C@H]5O)c4oc13)-c1c(cc(CC(C)=O)c(C(=O)O)c1O)CC2` [cB, chrexanthomycin B], in data set [1], the “binding affinity order according” value is listed as “cC>cA>cB>cF” and the “binding to DNA (G4C2)4 G4” value is reported as “proved to bind”. Further, in the data set with red blood cells, the hemolytic activity entry is reported as “significant hemolytic activity starting at 500 μg/ml; also recorded: significant hemolytic activity starting at 0.5 mg/ml”. Moreover, in data set [3], the “cytotoxicity (structure-activity summary)” value is “potent cytotoxicity”, the EC50 amounted to 11.1 µM and the “neuroprotective activity compared with cA” value is given as “worse than cA”.

For the molecule `CC(=O)Cc1cc2c(c(O)c1C(=O)O)-c1c(c(O)c3oc4c(O[C@@H]5O[C@H](C(=O)O)[C@@H](O)[C@H](O)[C@H]5O)cccc4c(=O)c3c1O)CC2` [cC, chrexanthomycin C], in data set [1], the “binding affinity order according” value is reported as “cC>cA>cB>cF” and the “binding to DNA (G4C2)4 G4” value is reported as “proved to bind”. In addition, in data set [2], the “G4C2 RNA foci numbers in cells” value is listed as “significantly reduced” and the “CAGG (control probe) RNA foci numbers” value is listed as “seldomly changed”. In addition, the hemolytic activity entry with red blood cells is given as “no hemolytic activity even at the concentration of 1000 μg/ml; also recorded: no hemolytic activity with a pretty high concentration of 1 mg/ml”. Also, the “neuroprotective activity compared with cA” value in data set [3] was “better neuroprotective activity than cA”.
